# Results: US10800734B2, “Memantine compounds and their preparation and uses thereof” (Sunshine Lake Pharma Co., Ltd., priority 2016, dated 2020)
# Where two headings read alike, the source gives them in different places.
# Columns and labels:
# [1] = type: in vitro ADME; details: human, microsomes, 1 μM, pH 7.4
# Procedure: (§1) Analytical LC/MS/MS systems: Agilent 1200 Series vacuum degasser, dual-injection pump, orifice autosampler, column incubator, charged spray ionization (ESI) source, and Agilent G6430 three-stage quadrupole mass spectrometer. The quantitative analysis is performed in the MRM mode, with the following MRM conversion parameters:
# Analytical Agilent Poroshell HPH-C18: 2.1×50 mm, 2.7 μM column, 20 μL of sample was injected. Conditions: mobile phase with ammonium formate+0.1% formic acid (A) and methanol+2 mM ammonium formate+0.1% formic acid (B). The flow rate was 0.3 mL/min. The mobile phase gradient is as follows: […]
# Agilent 6330 Series LC/MS/MS spectrometer was equipped with G1312A binary injection pump, G1367A automatic sampler and MS/MS detector; LC/MS/MS was used with ESI source. Suitable cationic model treatments and MRM conversion were used for each analyte using standard solution for optimal analysis. The Agilent Poroshell HPH-C18 column was used during the analysis with a specification of 100×4.6 mm I.D., 5 μM. The mobile phase included ammonium formate+0.1% formic acid (A) and methanol+2 mM ammonium formate+0.1% formic acid (B). The flow rate was 0.3 mL/min; the column temperature was maintained at 40° C.; 20 μL of sample was injected.
# A human liver microsomal incubation system was used for the testing. The incubation mixtures included human or rat liver microsomes (0.5 mg protein/mL), the tested compound was provided at 1 μM. The compound was dissolved in DMSO and diluted with acetonitrile water and mixed with a mixture of liver microparticle potassium phosphate buffer solution (pH=7.4). The above operations were done on wet ice, and incubated in a thermostatic incubator at 37° C. At different time points (0, 60 and 120 min), ice-cold acetonitrile was added to terminate the reaction. NADPH was not added during the reaction, and the effect of esterase on its conversion was examined. Samples were stored at −80° C. until LC/MS/MS analysis was performed.
# The conversion of the compounds of the disclosure to active adamantane compound, which is memantine in the human liver microsome was determined by LC/MS/MS.
# [2] = In vivo pharmacokinetics after intramuscular administration in rats
# Procedure: Legend format: tested compound/dose (mg/kg)/converted active adamantane compound, which is memantine.
# as §1
# Waters XBridge TMC18, 2.1×30 mm, 3.5 μM column; 20 μL of sample was injected in each run. Conditions: The mobile phase included […]+2 mM ammonium formate+0.1% formic acid (A) and methanol+2 mM ammonium formate+0.1% formic acid (B). The flow rate was 0.35 mL/min. The mobile phase gradient is as follows: […]
# Additional instruments and reagents included Agilent 6330 Series LC/MS/MS spectrometer equipped with a G1312A Binary Injection Pump, G1367A autosampler and MS/MS Detector for analysis; LC/MS/MS spectrometer with ESI source. Suitable cationic model treatments and MRM conversion were used for each analyte using standard solution for optimal analysis. Waters XBridge TMC18 was used with specifications of 2.1×30 mm, 3.5 μM. The reaction was carried out with ammonium formate+2 mM ammonium formate+0.1% formic acid (A) and methanol+2 mM ammonium formate+0.1% formic acid (B). The flow rate was 0.35 mL/min; the column temperature was maintained at 40° C.; 10 μL of sample was injected.
# This example conducted pharmacokinetic studies of various compounds of the present disclosure in rats. The compounds were subjected to pretreatment including grinding and sieving, and were then added to a mixture formed by dissolving and dispersing in Tween-20 and/or Span-20. The mixtures were uniformly dispersed and fixed. The suspensions were pulverized by a ball mill […]. Memantine (MJG, 17.5 mg/kg) or tested compounds (75 or 37.5 mg/kg) were administered by intramuscular administration. Whole blood was collected at 0.25, 1, 2, 5, 7, 24, 48, 72, 96, 120, 148 and 196 h, was centrifuged at 12,000 g for 2 minutes. Plasma was collected and stored at −20° C. or −70° C. until the LC/MS/MS analysis was performed.
# [3] = rat, im, solution, 17.5 mg/kg, memantine in plasma
Compound,Percentage of Remaining or Converted Active Adamantane Compound ([1]; 1 h) [%],Percentage of Remaining or Converted Active Adamantane Compound ([1]; 2 h) [%],"T½ ([2]; suspension, 75 mg/kg, converted memantine in plasma)","AUC(0-t) [2, 3] [ng·h/mL]","Cmax [2, 3] [ng/mL]","Tmax [2, 3] [h]","half-life ([2]; rat, plasma, im, 17.5 mg/kg, solution, 17.5 mg/kg, memantine in plasma, read-out: T½ (converted)) [h]","T½ ([2]; solution, 17.5 mg/kg, memantine in plasma) [h]"
CC12CC3CC(C)(C1)CC(NC(=O)OCOC(=O)Cc1cccc4ccccc14)(C3)C2 [Compound 1],108,101,–,–,–,–,–,–
CC12CC3CC(C)(C1)CC(NC(=O)OCOC(=O)c1ccccc1)(C3)C2 [Compound 2],134,118,too high to be measurable,–,–,–,–,–
CCCCCCCCCCCC(=O)OCOC(=O)NC12CC3CC(C)(CC(C)(C3)C1)C2 [Compound 3],35.6,35.6,–,–,–,–,–,–
CCCCCCCCCCCCCCCC(=O)OCOC(=O)NC12CC3CC(C)(CC(C)(C3)C1)C2 [Compound 4],25.3,34,–,–,–,–,–,–
"CC12CC3CC(C)(C1)CC(N)(C3)C2 [MJG, memantine]",98,98,–,11800,1940,1.33,~4,4
